Values quoted from earlier work, collected in patent publication US20200319191A1, “MOLECULAR PROFILING FOR CANCER” (Caris MPI, Inc., priority 2015, published 2020).
Like-named read-outs stand apart in the source and are kept apart here. One block for each compound: values may come before it.

Conditions: for response by TOPOI expression: expression of TOPOI; for Evid. Level, ER Positive (IHC) / Bene. Level, ER Positive (IHC): Hormonal Agents; for benefit by PIK3CA status: PIK3CA exon 20 mutations; for sensitivity of AML tumor cells by NPM status: AML tumor cells with mutant NPM; for sensitivity by EGFRvIII expression: preliminary studies; for resistance by ALK secondary mutations: ALK secondary mutations found in NSCLC; for Bene. Level, PGP Positive (IHC) / Evid. Level, PGP Positive (IHC): Anthracyclines

Structure (SMILES): CCc1c2c(nc3ccc(OC(=O)N4CCC(N5CCCCC5)CC4)cc13)-c1cc3c(c(=O)n1C2)COC(=O)[C@]3(O)CC [irinotecan]
response by TOPOI expression: DNA molecule. Expression of TOPOI has been associated with response to TOPOI

Evid. Level, ER Positive (IHC) (ER Positive (IHC)=F): 1
Bene. Level, ER Positive (IHC) (ER Positive (IHC)=T): 1
Evid. Level, ER Positive (IHC) (ER Positive (IHC)=T): 1
Structure (SMILES): CC(C)(C#N)c1cc(Cn2cncn2)cc(C(C)(C)C#N)c1 [anastrozole]

Structure (SMILES): CO[C@H]1C[C@@H]2CC[C@@H](C)[C@@](O)(O2)C(=O)C(=O)N2CCCC[C@H]2C(=O)O[C@H]([C@H](C)C[C@@H]2CC[C@@H](OCCO)[C@H](OC)C2)CC(=O)[C@H](C)/C=C(\C)[C@@H](O)[C@@H](OC)C(=O)[C@H](C)C[C@H](C)/C=C/C=C/C=C/1C [everolimus]
benefit by PIK3CA status: associated with benefit from mTOR inhibitors (everolimus, temsirolimus). Evidence

Evid. Level, ER Positive (IHC) (ER Positive (IHC)=F): 1
Bene. Level, ER Positive (IHC) (ER Positive (IHC)=T): 1
Evid. Level, ER Positive (IHC) (ER Positive (IHC)=T): 1
Structure (SMILES): CC/C(=C(\c1ccccc1)c1ccc(OCCN(C)C)cc1)c1ccccc1 [tamoxifen]

Structure (SMILES): CO[C@H]1C[C@@H]2CC[C@@H](C)[C@@](O)(O2)C(=O)C(=O)N2CCCC[C@H]2C(=O)O[C@H]([C@H](C)C[C@@H]2CC[C@@H](OC(=O)C(C)(CO)CO)[C@H](OC)C2)CC(=O)[C@H](C)/C=C(\C)[C@@H](O)[C@@H](OC)C(=O)[C@H](C)C[C@H](C)/C=C/C=C/C=C/1C [temsirolimus]
benefit by PIK3CA status: associated with benefit from mTOR inhibitors (everolimus, temsirolimus). Evidence

Structure (SMILES): O=C(O)C(=O)O.[NH-][C@@H]1CCCC[C@H]1[NH-].[Pt+2] [oxaliplatin]
disease control rate by APC status (APC wild type patients, metastatic setting, colorectal): event in colorectal tumorigenesis. APC wild type patients have shown better disease

Structure (SMILES): CC[C@@]1(O)C(=O)OCc2c1cc1n(c2=O)Cc2cc3ccccc3nc2-1 [camptothecin]
sensitivity of AML tumor cells by NPM status: research shows AML tumor cells with mutant NPM are more sensitive to

Structure (SMILES): CCCS(=O)(=O)Nc1ccc(F)c(C(=O)c2c[nH]c3ncc(-c4ccc(Cl)cc4)cc23)c1F [vemurafenib]
tumors that develop in treated patients (patients treated with BRAF inhibitor, likely paradoxical activation of the MAPK pathway): cutaneous squamous cell carcinomas and keratoacanthomas that develop in patients treated

Structure (SMILES): CC[C@@]1(O)C(=O)OCc2c1cc1n(c2=O)Cc2cc3c(CN(C)C)c(O)ccc3nc2-1 [topotecan]
response by TOPOI expression: DNA molecule. Expression of TOPOI has been associated with response to TOPOI

Structure (SMILES): CNC(=O)c1ccc(N2C(=S)N(c3ccc(C#N)c(C(F)(F)F)c3)C(=O)C2(C)C)cc1F [enzalutamide]
resistance by AR mutations (specific mutations in AR (e.g. F876L, AR-V7)): F876L, AR-V7) are associated with resistance to newer-generation, AR-targeted therapies

Structure (SMILES): C#Cc1cccc(Nc2ncnc3cc(OCCOC)c(OCCOC)cc23)c1 [erlotinib]
sensitivity by EGFRvIII expression: higher sensitivity to erlotinib and gefitinib, as well as to pan-Her inhibitors including
response by EGFR secondary mutation (T790M in exon 20): mutation, T790M in exon 20, confers reduced response. Non-small cell lung cancer cancer
sensitivity by EGFR gain-of-function mutations (in-frame deletions in exon 19 or point mutations in exon 21): point mutations in exon 21, confer sensitivity to first- and second-generation tyrosine

Structure (SMILES): Cc1cc(Nc2ncc(Cl)c(Nc3ccccc3S(=O)(=O)C(C)C)n2)c(OC(C)C)cc1C1CCNCC1 [ceritinib]
resistance by ALK secondary mutations: mutations found in NSCLC have been associated with acquired resistance to ALK

Evid. Level, ER Positive (IHC) (ER Positive (IHC)=F): 1
Bene. Level, ER Positive (IHC) (ER Positive (IHC)=T): 1
Evid. Level, ER Positive (IHC) (ER Positive (IHC)=T): 1
Structure (SMILES): C=C1C[C@@H]2[C@H](CC[C@]3(C)C(=O)CC[C@@H]23)[C@@]2(C)C=CC(=O)C=C12 [exemestane]

Evid. Level, ER Positive (IHC) (ER Positive (IHC)=F): 1
Bene. Level, ER Positive (IHC) (ER Positive (IHC)=T): 1
Evid. Level, ER Positive (IHC) (ER Positive (IHC)=T): 1
Structure (SMILES): CN(C)CCOc1ccc(/C(=C(/CCCl)c2ccccc2)c2ccccc2)cc1 [toremifene]

Bene. Level, PGP Positive (IHC) (PGP Positive (IHC)=F): 1
Evid. Level, PGP Positive (IHC) (PGP Positive (IHC)=F): 2
Bene. Level, PGP Positive (IHC) (PGP Positive (IHC)=T): 2
Evid. Level, PGP Positive (IHC) (PGP Positive (IHC)=T): 2
Structure (SMILES): COc1cccc2c1C(=O)c1c(O)c3c(c(O)c1C2=O)C[C@@](O)(C(=O)CO)C[C@@H]3O[C@H]1C[C@H](N)[C@H](O)[C@H](C)O1 [doxorubicin, reference compound]

Evid. Level, ER Positive (IHC) (ER Positive (IHC)=F): 1
Bene. Level, ER Positive (IHC) (ER Positive (IHC)=T): 1
Evid. Level, ER Positive (IHC) (ER Positive (IHC)=T): 1
Structure (SMILES): CC(=O)O[C@]1(C(C)=O)CC[C@H]2[C@@H]3C=C(C)C4=CC(=O)CC[C@]4(C)[C@H]3CC[C@@]21C [megestrol acetate]

Evid. Level, ER Positive (IHC) (ER Positive (IHC)=F): 1
Bene. Level, ER Positive (IHC) (ER Positive (IHC)=T): 1
Evid. Level, ER Positive (IHC) (ER Positive (IHC)=T): 1
Structure (SMILES): C[C@]12CC[C@@H]3c4ccc(O)cc4C[C@@H](CCCCCCCCC[S+]([O-])CCCC(F)(F)C(F)(F)F)[C@H]3[C@@H]1CC[C@@H]2O (stereo partly drawn) [fulvestrant]

Structure (SMILES): C[C@@H](Oc1cc(-c2cnn(C3CCNCC3)c2)cnc1N)c1c(Cl)ccc(F)c1Cl [crizotinib]
resistance by ALK secondary mutations: mutations found in NSCLC have been associated with acquired resistance to ALK
sensitivity and response by ROS1 status (ROS-rearranged NSCLC patients, clinical data): improved response to the MET/ALK/ROS inhibitor, crizotinib.

Structure (SMILES): Nc1ccn([C@@H]2O[C@H](CO)[C@@H](O)C2(F)F)c(=O)n1 [gemcitabine]
resistance by RRM1 level (high RRM1 level): activity. High RRM1 level is associated with resistance to gemcitabine.

Structure (SMILES): COc1cc2ncnc(Nc3ccc(F)c(Cl)c3)c2cc1NC(=O)/C=C/CN1CCCCC1 [dacomitinib]
sensitivity by EGFRvIII expression: higher sensitivity to erlotinib and gefitinib, as well as to pan-Her inhibitors including

Bene. Level, PGP Positive (IHC) (PGP Positive (IHC)=F): 1
Evid. Level, PGP Positive (IHC) (PGP Positive (IHC)=F): 2
Bene. Level, PGP Positive (IHC) (PGP Positive (IHC)=T): 2
Evid. Level, PGP Positive (IHC) (PGP Positive (IHC)=T): 2
Structure (SMILES): COc1cccc2c1C(=O)c1c(O)c3c(c(O)c1C2=O)C[C@@](O)(C(=O)CO)C[C@@H]3O[C@H]1C[C@H](N)[C@@H](O)[C@H](C)O1 [epirubicin]

PGP Positive (IHC) Bene. Level (IHC positive: TLE3 F, TUBB3 F, PGP F): 1
PGP Positive (IHC) Bene. Level (IHC positive: TLE3 F, TUBB3 F, PGP T): 2
PGP Positive (IHC) Bene. Level (IHC positive: TLE3 F, TUBB3 No Data, PGP F): 1
PGP Positive (IHC) Bene. Level (IHC positive: TLE3 F, TUBB3 No Data, PGP T): 3
PGP Positive (IHC) Bene. Level (IHC positive: TLE3 F, TUBB3 T, PGP F): 1
PGP Positive (IHC) Bene. Level (IHC positive: TLE3 F, TUBB3 T, PGP T): 3
PGP Positive (IHC) Bene. Level (IHC positive: TLE3 No Data, TUBB3 F, PGP F): 1
PGP Positive (IHC) Bene. Level (IHC positive: TLE3 No Data, TUBB3 F, PGP T): 2
PGP Positive (IHC) Bene. Level (IHC positive: TLE3 No Data, TUBB3 No Data, PGP F): 1
PGP Positive (IHC) Bene. Level (IHC positive: TLE3 No Data, TUBB3 No Data, PGP T): 3
PGP Positive (IHC) Bene. Level (IHC positive: TLE3 No Data, TUBB3 T, PGP F): 1
PGP Positive (IHC) Bene. Level (IHC positive: TLE3 No Data, TUBB3 T, PGP T): 3
PGP Positive (IHC) Bene. Level (IHC positive: TLE3 T, TUBB3 F, PGP F): 1
PGP Positive (IHC) Bene. Level (IHC positive: TLE3 T, TUBB3 F, PGP T): 2
PGP Positive (IHC) Bene. Level (IHC positive: TLE3 T, TUBB3 No Data, PGP F): 1
PGP Positive (IHC) Bene. Level (IHC positive: TLE3 T, TUBB3 No Data, PGP T): 2
PGP Positive (IHC) Bene. Level (IHC positive: TLE3 T, TUBB3 T, PGP F): 1
PGP Positive (IHC) Bene. Level (IHC positive: TLE3 T, TUBB3 T, PGP T): 2
PGP Positive (IHC) Evid. Level (taxanes rule, Ref. No. 28): 3
Structure (SMILES): CC(=O)O[C@@]12CO[C@@H]1C[C@H](O)[C@@]1(C)C(=O)[C@H](O)C3=C(C)[C@@H](OC(=O)[C@H](O)[C@@H](NC(=O)OC(C)(C)C)c4ccccc4)C[C@@](O)([C@@H](OC(=O)c4ccccc4)[C@H]21)C3(C)C [docetaxel]

Structure (SMILES): CCC1=C[C@@H]2CN(C1)Cc1c([nH]c3ccccc13)[C@@](C(=O)OC)(c1cc3c(cc1OC)N(C)[C@H]1[C@@](O)(C(=O)OC)[C@H](OC(C)=O)[C@]4(CC)C=CCN5CC[C@]31[C@@H]54)C2 [vinorelbine]
resistance by loss of FBXW7 (loss of FBXW7, tubulin-targeting agents): loss of FBXW7 confers resistance to tubulin-targeting agents like paclitaxel or vinorelbine,

Structure (SMILES): COc1cccc2c1C(=O)c1c(O)c3c(c(O)c1C2=O)C[C@@](O)(C(C)=O)C[C@@H]3O[C@H]1C[C@H](N)[C@H](O)[C@H](C)O1 [daunorubicin]
sensitivity of AML tumor cells by NPM status: research shows AML tumor cells with mutant NPM are more sensitive to
